Patent USRE38330E1, “Preventing and reversing advanced glycosylation endproducts” (Alteon Inc., priority 1995, dated 2003)

Test system: fixed protein (gelatin, i.e., collagen) surface
Assay: Surface browning experiment on gelatin/paper disks in glucose-6-phosphate
Settings: 100 mM glucose-6-phosphate, one week at 50° C., final concentration of 0.04% chlorhexidine (Peridex)
Method: To further study the ability of inhibitors of nonenzymatic browning to prevent the discoloration of protein on a surface, such as that which occurs on the tooth surface, the following surface browning experiment is performed. As a substitute for a pellicle-covered tooth surface, unexposed and developed photographic paper is used to provide a fixed protein (gelatin, i.e., collagen) surface on a paper backing. […] Glucose-6-phosphate is a sugar capable of participating in nonenzymatic browning at a more rapid rate than glucose. In addition to the glucose-6-phosphate, chlorhexidine and/or a compound of Formula I are included. After incubation, the gelatin/paper disks are rinsed with water, observed for brown color, and photographed.

## [H]/N=C(\N/C(=N/[H])NCCCCCCNC(=N)NC(=N)Nc1ccc(Cl)cc1)Nc1ccc(Cl)cc1 [chlorhexidine]
  brown color of gelatin/paper disks: significant browning
